Several values for one entry are separate records, joined by “and”; a condition that tells them apart may be missing. Identical values can stand only once.
Experiments:
Assay in all cases: radiometric filter-binding kinase assay, Kinaseprofiler
CHEK2 (human) = CHEK2 (human) (UniProt O96017); conditions: compound 1.0 µM; ATP 70 µM
FGFR4 (human) = FGFR4 (human) (UniProt P22455); conditions: compound 1.0 µM; ATP 155 µM
NEK3 (human) = NEK3 (human) (UniProt P51956); conditions: compound 1.0 µM; ATP 120 µM
EPHA4 (human) = EPHA4 (human) (UniProt P54764); conditions: compound 1.0 µM; ATP 15 µM
MAPK13 (human) = MAPK13 (human) (UniProt O15264); conditions: compound 1.0 µM; ATP 15 µM
PRKG1 (human) = PRKG1 (human) (UniProt Q13976); conditions: compound 1.0 µM; ATP 90 µM
Chain of PRKG1 (human) (Q13976 whole entry, looked up): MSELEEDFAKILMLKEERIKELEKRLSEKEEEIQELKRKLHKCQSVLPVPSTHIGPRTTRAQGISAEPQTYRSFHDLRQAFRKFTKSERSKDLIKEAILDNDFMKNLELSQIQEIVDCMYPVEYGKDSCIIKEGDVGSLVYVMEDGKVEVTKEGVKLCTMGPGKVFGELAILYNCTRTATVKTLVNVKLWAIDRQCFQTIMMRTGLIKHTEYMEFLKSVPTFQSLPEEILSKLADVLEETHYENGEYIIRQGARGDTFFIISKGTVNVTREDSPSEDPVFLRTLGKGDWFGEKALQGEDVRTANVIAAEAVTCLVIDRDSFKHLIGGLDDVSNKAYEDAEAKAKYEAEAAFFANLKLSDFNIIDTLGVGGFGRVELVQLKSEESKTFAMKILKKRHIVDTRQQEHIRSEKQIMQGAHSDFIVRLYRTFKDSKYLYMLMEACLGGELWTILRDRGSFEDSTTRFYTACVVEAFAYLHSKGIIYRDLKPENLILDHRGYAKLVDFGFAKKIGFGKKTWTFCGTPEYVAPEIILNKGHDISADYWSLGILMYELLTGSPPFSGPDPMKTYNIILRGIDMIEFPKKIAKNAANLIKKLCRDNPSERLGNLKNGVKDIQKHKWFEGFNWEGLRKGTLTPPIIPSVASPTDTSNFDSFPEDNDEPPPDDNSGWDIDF

EPHA2 (human) = EPHA2 (human) (UniProt P29317); conditions: compound 1.0 µM; ATP 155 µM
FLT1 (human) = FLT1 (human) (UniProt P17948); conditions: compound 1.0 µM; ATP 200 µM
Chain of FLT1 (human) (P17948 whole entry, looked up): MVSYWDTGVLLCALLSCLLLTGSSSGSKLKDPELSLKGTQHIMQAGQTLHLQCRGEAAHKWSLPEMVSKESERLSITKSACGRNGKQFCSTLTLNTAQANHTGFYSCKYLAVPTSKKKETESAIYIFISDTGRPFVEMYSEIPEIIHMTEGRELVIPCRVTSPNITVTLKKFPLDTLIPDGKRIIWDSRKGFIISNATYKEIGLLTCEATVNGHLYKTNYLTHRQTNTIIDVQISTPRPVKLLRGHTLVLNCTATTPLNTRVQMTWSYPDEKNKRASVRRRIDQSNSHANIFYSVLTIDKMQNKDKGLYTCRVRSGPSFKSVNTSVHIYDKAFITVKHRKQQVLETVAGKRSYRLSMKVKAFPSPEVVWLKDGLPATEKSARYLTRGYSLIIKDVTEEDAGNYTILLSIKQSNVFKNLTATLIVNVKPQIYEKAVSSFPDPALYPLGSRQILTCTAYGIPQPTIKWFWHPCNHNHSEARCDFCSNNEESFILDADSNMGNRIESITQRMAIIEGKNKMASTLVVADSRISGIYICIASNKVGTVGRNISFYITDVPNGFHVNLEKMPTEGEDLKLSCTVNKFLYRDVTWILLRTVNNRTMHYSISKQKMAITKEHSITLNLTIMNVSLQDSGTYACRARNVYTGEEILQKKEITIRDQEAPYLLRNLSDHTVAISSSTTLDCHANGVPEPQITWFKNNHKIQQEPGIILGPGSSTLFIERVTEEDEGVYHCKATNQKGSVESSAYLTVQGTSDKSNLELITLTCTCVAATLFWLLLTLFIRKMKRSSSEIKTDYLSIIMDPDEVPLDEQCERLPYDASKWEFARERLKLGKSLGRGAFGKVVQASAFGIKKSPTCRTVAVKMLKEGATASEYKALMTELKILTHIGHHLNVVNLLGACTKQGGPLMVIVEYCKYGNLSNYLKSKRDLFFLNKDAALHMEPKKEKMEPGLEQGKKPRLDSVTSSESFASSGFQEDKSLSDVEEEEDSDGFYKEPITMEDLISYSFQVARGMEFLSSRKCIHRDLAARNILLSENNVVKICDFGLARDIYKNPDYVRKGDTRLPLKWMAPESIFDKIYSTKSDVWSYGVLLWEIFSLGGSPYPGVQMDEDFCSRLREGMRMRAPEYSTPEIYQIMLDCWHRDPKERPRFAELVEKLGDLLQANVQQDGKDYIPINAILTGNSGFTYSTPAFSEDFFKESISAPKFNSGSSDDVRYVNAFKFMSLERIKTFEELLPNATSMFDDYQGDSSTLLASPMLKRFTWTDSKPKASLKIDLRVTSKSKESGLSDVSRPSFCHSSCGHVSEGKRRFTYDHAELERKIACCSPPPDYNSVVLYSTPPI

CHUK (human) = CHUK (human) (UniProt O15111); conditions: compound 1.0 µM; ATP 10 µM
PRKCB1 (human) = PRKCB1 (human) (UniProt P05771); conditions: compound 1.0 µM; ATP 10 µM
MAPK12 (human) = MAPK12 (human) (UniProt P53778); conditions: compound 1.0 µM; ATP 15 µM
RPS6KA4 KD1 KD2 (human) = RPS6KA4 KD1 KD2 (human) (UniProt O75676); conditions: compound 1.0 µM; ATP 45 µM
CDK3 CCNE1 (human) = CDK3 CCNE1 (human) (UniProt Q00526+P24864); conditions: compound 1.0 µM; ATP 200 µM
DMPK (human) = DMPK (human) (UniProt Q09013); conditions: compound 1.0 µM; ATP 10 µM
CDK5 CDK5R1 p25 (human) = CDK5 CDK5R1 p25 (human) (UniProt Q00535+Q15078); conditions: compound 1.0 µM; ATP 15 µM
STK10 (human) = STK10 (human) (UniProt O94804); conditions: compound 1.0 µM; ATP 200 µM
Chain of STK10 (human) (O94804 whole entry, looked up): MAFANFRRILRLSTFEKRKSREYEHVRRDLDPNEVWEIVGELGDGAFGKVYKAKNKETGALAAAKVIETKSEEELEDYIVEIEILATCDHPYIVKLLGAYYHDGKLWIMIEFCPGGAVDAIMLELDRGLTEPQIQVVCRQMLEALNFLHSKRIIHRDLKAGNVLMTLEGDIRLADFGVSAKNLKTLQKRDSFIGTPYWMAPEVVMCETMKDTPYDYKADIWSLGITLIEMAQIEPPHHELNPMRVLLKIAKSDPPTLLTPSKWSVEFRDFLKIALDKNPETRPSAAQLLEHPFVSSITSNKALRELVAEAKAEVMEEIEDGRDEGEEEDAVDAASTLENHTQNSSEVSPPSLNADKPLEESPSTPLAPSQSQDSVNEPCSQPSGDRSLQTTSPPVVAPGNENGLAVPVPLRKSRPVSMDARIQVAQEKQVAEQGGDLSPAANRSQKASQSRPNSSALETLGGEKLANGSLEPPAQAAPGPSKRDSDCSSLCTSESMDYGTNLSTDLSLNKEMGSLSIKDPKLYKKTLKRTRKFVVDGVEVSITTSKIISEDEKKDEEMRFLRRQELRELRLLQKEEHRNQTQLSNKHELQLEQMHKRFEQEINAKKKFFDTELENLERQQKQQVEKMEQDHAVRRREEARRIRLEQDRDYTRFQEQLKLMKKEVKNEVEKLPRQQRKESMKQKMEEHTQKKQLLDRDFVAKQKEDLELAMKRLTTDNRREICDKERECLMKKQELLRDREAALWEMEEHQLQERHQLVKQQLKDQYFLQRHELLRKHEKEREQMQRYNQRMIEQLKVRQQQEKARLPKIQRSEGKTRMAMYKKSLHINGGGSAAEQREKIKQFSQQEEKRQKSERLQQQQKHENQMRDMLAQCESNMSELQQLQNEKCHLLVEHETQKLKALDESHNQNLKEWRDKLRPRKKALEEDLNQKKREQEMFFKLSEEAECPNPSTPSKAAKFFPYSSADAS

EPHA5 (human) = EPHA5 (human) (UniProt P54756); conditions: compound 1.0 µM; ATP 10 µM
PRKCB2 (human) = PRKCB2 (human) (UniProt P05771); conditions: compound 1.0 µM; ATP 10 µM
[1] = system: MAPK14 (human), Q16539 [T106M]; conditions: compound 1.0 µM; ATP 90 µM
PRKCD (human) = PRKCD (human) (UniProt Q05655); conditions: compound 1.0 µM; ATP 15 µM
Chain of PRKCD (human) (Q05655 whole entry, looked up): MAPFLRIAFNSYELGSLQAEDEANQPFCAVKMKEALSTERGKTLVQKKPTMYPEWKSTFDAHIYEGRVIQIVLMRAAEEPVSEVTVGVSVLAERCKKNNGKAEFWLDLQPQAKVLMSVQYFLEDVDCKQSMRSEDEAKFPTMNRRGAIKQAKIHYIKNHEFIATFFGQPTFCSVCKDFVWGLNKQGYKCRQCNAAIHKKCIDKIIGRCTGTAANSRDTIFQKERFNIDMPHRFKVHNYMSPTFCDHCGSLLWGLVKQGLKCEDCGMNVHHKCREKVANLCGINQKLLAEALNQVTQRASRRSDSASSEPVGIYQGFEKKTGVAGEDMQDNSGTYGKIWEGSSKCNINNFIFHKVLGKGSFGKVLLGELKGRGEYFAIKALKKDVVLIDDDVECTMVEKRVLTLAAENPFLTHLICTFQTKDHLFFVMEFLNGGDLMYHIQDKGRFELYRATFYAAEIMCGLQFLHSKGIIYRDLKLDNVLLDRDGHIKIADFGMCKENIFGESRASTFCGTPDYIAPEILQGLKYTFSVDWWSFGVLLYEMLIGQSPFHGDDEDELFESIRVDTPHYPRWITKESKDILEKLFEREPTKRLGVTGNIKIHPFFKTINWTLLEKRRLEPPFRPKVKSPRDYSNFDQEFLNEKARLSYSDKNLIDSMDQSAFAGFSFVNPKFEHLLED

EPHA8 (human) = EPHA8 (human) (UniProt P29322); conditions: compound 1.0 µM; ATP 200 µM
CDK6 CCND3 (human) = CDK6 CCND3 (human) (UniProt P30281+Q00534); conditions: compound 1.0 µM; ATP 200 µM
PRKCA (human) = PRKCA (human) (UniProt P17252); conditions: compound 1.0 µM; ATP 45 µM
MYLK (human) = MYLK (human) (UniProt Q15746); conditions: compound 1.0 µM; ATP 70 µM
NEK2 (human) = NEK2 (human) (UniProt P51955); conditions: compound 1.0 µM; ATP 120 µM
PRKX (human) = PRKX (human) (UniProt P51817); conditions: compound 1.0 µM; ATP 200 µM
CSNK2A2 (human) = CSNK2A2 (human) (UniProt P19784); conditions: compound 1.0 µM; ATP 10 µM
PDGFRB (human) = PDGFRB (human) (UniProt P09619); conditions: compound 1.0 µM; ATP 200 µM
FER (human) = FER (human) (UniProt P16591); conditions: compound 1.0 µM; ATP 70 µM
PAK6 (human) = PAK6 (human) (UniProt Q9NQU5); conditions: compound 1.0 µM; ATP 10 µM
Chain of PAK6 (human) (Q9NQU5 whole entry, looked up): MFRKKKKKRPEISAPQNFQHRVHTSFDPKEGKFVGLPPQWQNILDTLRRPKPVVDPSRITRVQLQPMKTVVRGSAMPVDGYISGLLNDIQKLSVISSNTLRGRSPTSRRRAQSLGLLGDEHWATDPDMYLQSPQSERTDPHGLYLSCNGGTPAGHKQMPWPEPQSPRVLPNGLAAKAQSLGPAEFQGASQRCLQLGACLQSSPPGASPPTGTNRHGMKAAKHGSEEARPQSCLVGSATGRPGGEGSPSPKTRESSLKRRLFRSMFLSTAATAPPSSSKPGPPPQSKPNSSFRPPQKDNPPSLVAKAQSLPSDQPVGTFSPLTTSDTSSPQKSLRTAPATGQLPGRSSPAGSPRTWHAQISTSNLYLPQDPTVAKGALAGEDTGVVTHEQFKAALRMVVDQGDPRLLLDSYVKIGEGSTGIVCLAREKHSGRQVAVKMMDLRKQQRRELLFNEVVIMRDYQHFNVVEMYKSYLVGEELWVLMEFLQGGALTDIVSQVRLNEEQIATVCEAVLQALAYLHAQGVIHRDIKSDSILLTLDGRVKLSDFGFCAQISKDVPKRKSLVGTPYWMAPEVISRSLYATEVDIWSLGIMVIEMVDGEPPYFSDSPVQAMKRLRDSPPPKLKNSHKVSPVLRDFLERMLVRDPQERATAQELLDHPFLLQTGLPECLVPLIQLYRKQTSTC

INSRR (human) = INSRR (human) (UniProt P14616); conditions: compound 1.0 µM; ATP 200 µM
RPS6KA2 KD1 KD2 (human) = RPS6KA2 KD1 KD2 (human) (UniProt Q15349); conditions: compound 1.0 µM; ATP 10 µM
PLK3 (human) = PLK3 (human) (UniProt Q9H4B4); conditions: compound 1.0 µM; ATP 70 µM
[2] = system: PAK2 (human), Q13177 [L150F, P225T, V383I; A339 del]; conditions: compound 1.0 µM; ATP 90 µM
[3] = target: JAK3 JH1 catalytic (human) (UniProt P52333); conditions: compound 1.0 µM; ATP 10 µM
[4] = system: FLT4 (human), P35916 [V1128L/H1146R]; conditions: compound 1.0 µM; ATP 200 µM
[5] = system: SGK2 (human), Q9HBY8 [S416D]; conditions: compound 1.0 µM; ATP 15 µM
CHEK1 (human) = CHEK1 (human) (UniProt O14757); conditions: compound 1.0 µM; ATP 90 µM

Chain of CHEK2 (human) (O96017 whole entry, looked up): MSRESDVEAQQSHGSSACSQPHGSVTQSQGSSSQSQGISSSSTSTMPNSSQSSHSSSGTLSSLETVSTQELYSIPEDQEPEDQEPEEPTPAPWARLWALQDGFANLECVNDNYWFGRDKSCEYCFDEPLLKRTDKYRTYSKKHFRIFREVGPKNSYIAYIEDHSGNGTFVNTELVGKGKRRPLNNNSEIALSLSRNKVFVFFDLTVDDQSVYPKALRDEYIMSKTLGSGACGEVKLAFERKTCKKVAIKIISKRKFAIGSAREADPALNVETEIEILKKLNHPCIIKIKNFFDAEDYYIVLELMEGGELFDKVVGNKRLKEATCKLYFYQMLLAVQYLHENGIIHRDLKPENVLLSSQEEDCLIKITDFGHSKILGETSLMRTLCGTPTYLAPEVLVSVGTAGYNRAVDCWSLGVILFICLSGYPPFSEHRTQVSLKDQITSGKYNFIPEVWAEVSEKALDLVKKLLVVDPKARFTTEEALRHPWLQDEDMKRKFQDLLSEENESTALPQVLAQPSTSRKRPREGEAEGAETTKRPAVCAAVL

CN(C)S(=O)(=O)Nc1ccc2ccc3ncc(-c4cnn(C)c4)cc3c(=O)c2c1
residual activity (CHEK2 (human)): 93%
residual activity (FGFR4 (human)): 88%
residual activity (NEK3 (human)): 104%
residual activity (EPHA4 (human)): 103%
residual activity (MAPK13 (human)): 98%
residual activity (PRKG1 (human)): 6% and -14%
residual activity (EPHA2 (human)): 80%
residual activity (FLT1 (human)): 5%
residual activity (CHUK (human)): 98%
residual activity (PRKCB1 (human)): 104%
residual activity (MAPK12 (human)): 103%
residual activity (RPS6KA4 KD1 KD2 (human)): 121%
residual activity (CDK3 CCNE1 (human)): 100%
residual activity (DMPK (human)): 101%
residual activity (CDK5 CDK5R1 p25 (human)): 88%
residual activity (STK10 (human)): 78%
residual activity (EPHA5 (human)): 102%
residual activity (PRKCB2 (human)): 105%
residual activity [1]: 112%
residual activity (PRKCD (human)): 92%
residual activity (EPHA8 (human)): 108%
residual activity (CDK6 CCND3 (human)): 108%
residual activity (PRKCA (human)): 105%
residual activity (MYLK (human)): 61%
residual activity (NEK2 (human)): 65%
residual activity (PRKX (human)): -12%
residual activity (CSNK2A2 (human)): 123%
residual activity (PDGFRB (human)): 77%
residual activity (FER (human)): 56%
residual activity (PAK6 (human)): 109%
residual activity (INSRR (human)): 103%
residual activity (RPS6KA2 KD1 KD2 (human)): 66%
residual activity (PLK3 (human)): 105%
residual activity [2]: 100%
residual activity [3]: 81%
residual activity [4]: 10%
residual activity [5]: 114%
residual activity (CHEK1 (human)): 98%

— the kinase profiling compilation of Christmann-Franck et al. (2016)
